From ChEMBL document CHEMBL1201862, “PubChem BioAssay data set” (2004)
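Five concentrations, 48 hours, 96-well plates. At the GI50, growth is halved.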 Activity calls are given as the source filed them. Cut-off read from the data, not from the text of the source: active = GI50 up to about 1.1 µM and inactive = higher.

Tests used:
Assay in all cases: NCI anticancer screen, dose series, 48 h
786-0 = tested on: 786-0
A549 = tested on: A549
ACHN = tested on: ACHN
BT-549 = tested on: BT-549
CCRF-CEM = tested on: CCRF-CEM
COLO 205 = tested on: COLO 205
DU-145 = tested on: DU-145
EKVX = tested on: EKVX
HCT-116 = tested on: HCT-116
HCT-15 = tested on: HCT-15
HL-60 = tested on: HL-60
HOP-62 = tested on: HOP-62
HT-29 = tested on: HT-29
Hs-578T = tested on: Hs-578T
IGROV-1 = tested on: IGROV-1
K562 = tested on: K562
KM12 = tested on: KM12
LOX IMVI = tested on: LOX IMVI
MCF7 = tested on: MCF7
MDA-MB-231 = tested on: MDA-MB-231
MDA-MB-435 = tested on: MDA-MB-435
MDA-N = tested on: MDA-N
MOLT-4 = tested on: MOLT-4
Malme-3M = tested on: Malme-3M
NCI-H226 = tested on: NCI-H226
NCI-H23 = tested on: NCI-H23
NCI-H460 = tested on: NCI-H460
NCI-H522 = tested on: NCI-H522
NCI/ADR-RES = tested on: NCI/ADR-RES
OVCAR-3 = tested on: OVCAR-3
OVCAR-4 = tested on: OVCAR-4
OVCAR-5 = tested on: OVCAR-5
OVCAR-8 = tested on: OVCAR-8
RPMI-8226 = tested on: RPMI-8226
SF-268 = tested on: SF-268
SF-295 = tested on: SF-295
SF-539 = tested on: SF-539
SK-MEL-28 = tested on: SK-MEL-28
SK-MEL-2 = tested on: SK-MEL-2
SK-MEL-5 = tested on: SK-MEL-5
SN12C = tested on: SN12C
SNB-19 = tested on: SNB-19
SR = tested on: SR
SW-620 = tested on: SW-620
T47D = tested on: T47D
TK-10 = tested on: TK-10
U-251 = tested on: U-251
UACC-257 = tested on: UACC-257
UACC-62 = tested on: UACC-62
UO-31 = tested on: UO-31

COc1ccc(N[S+]([O-])CCCc2ccccc2)cc1 (stereo not given)
GI50 (786-0): > 100 µM (inactive) | GI50 (A549): 65 µM (inactive) | GI50 (ACHN): > 100 µM (inactive) | GI50 (BT-549): 4.16 µM (inactive) | GI50 (CCRF-CEM): > 100 µM (inactive) | GI50 (COLO 205): > 100 µM (inactive) | GI50 (DU-145): > 100 µM (inactive) | GI50 (EKVX): > 100 µM (inactive) | GI50 (HCT-116): > 100 µM (inactive) | GI50 (HCT-15): 64 µM | GI50 (HL-60): 67.3 µM (inactive) | GI50 (HOP-62): > 100 µM (inactive) | GI50 (HT-29): > 100 µM (inactive) | GI50 (Hs-578T): > 100 µM (inactive) | GI50 (IGROV-1): 72.6 µM (inactive) | GI50 (K562): 75.5 µM (inactive) | GI50 (KM12): 34.8 µM (inactive) | GI50 (LOX IMVI): > 100 µM (inactive) | GI50 (MCF7): 81.1 µM (inactive) | GI50 (MDA-MB-231): > 100 µM (inactive) | GI50 (MDA-MB-435): > 100 µM (inactive) | GI50 (MDA-N): > 100 µM (inactive) | GI50 (MOLT-4): > 100 µM (inactive) | GI50 (Malme-3M): > 100 µM (inactive) | GI50 (NCI-H226): > 100 µM (inactive) | GI50 (NCI-H23): > 100 µM (inactive) | GI50 (NCI-H460): > 100 µM (inactive) | GI50 (NCI-H522): 24.1 µM (inactive) | GI50 (NCI/ADR-RES): 58.1 µM (inactive) | GI50 (OVCAR-3): 88.7 µM (inactive) | GI50 (OVCAR-4): > 100 µM (inactive) | GI50 (OVCAR-5): > 100 µM (inactive) | GI50 (OVCAR-8): > 100 µM (inactive) | GI50 (RPMI-8226): 70 µM (inactive) | GI50 (SF-268): > 100 µM (inactive) | GI50 (SF-295): > 100 µM (inactive) | GI50 (SF-539): > 100 µM (inactive) | GI50 (SK-MEL-28): > 100 µM (inactive) | GI50 (SK-MEL-2): > 100 µM (inactive) | GI50 (SK-MEL-5): 44.8 µM (inactive) | GI50 (SN12C): > 100 µM (inactive) | GI50 (SNB-19): > 100 µM (inactive) | GI50 (SR): 88.5 µM (inactive) | GI50 (SW-620): > 100 µM (inactive) | GI50 (T47D): 14.7 µM (inactive) | GI50 (TK-10): > 100 µM (inactive) | GI50 (U-251): 72.3 µM (inactive) | GI50 (UACC-257): 65 µM (inactive) | GI50 (UACC-62): 44.9 µM (inactive) | GI50 (UO-31): 38.7 µM (inactive)
